Data on two compounds can be found in US20220251084A1, “PROGRANULIN MODULATORS AND METHODS OF USING THE SAME” (ARKUDA THERAPEUTICS, priority 2019, published 2022).

This assay concerns progranulin (PGRN) secretion, BV-2 cells. Description: PGRN assay: progranulin induction cellular assay (ELISA of secreted mouse PGRN). The assay is classed as cell-based. The settings on record: Mus musculus, BV-2, PGRN assay, Table D; secreted mouse PGRN in cell culture medium, ELISA. The gist of the method: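 Progranulin induction measured in BV-2 cells plated at about 80% confluence the day before, given 1 h to attach, then incubated 16 h. Secreted mouse PGRN quantified by ELISA.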
Background: An ELISA detects its analyte on a solid surface through an enzyme-linked reagent.

On to `CN(C)C1CCN(C(=O)N2CCc3ccccc3[C@@H]2c2ccc(F)cc2)C1` (stereo in doubt) [Compound 2311, ((R)-3-(dimethylamino)pyrrolidin-1-yl)((S)-1-(4-fluorophenyl)-3,4-dihydroisoquinolin-2(1H)-yl)methanone], for which the midpoint of the response, the EC50, lay at 1.32 µM.
`O=C(NCC1(F)CNC1)N1CCc2ccccc2[C@@H]1c1ccc(F)cc1` [Compound 2231]: the EC50 came to 1.04 µM.

Usually EC50 stands for the concentration that produces a half-maximal response.
